# Measurements reported in PMC11053447, “Human ABC and SLC Transporters: The Culprit Responsible for Unspecific PSMA-617 Uptake?” (Pharmaceuticals, 2024).
# Columns and labels:
# human MATE2-K = human MATE2-K (Homo sapiens, UniProt Q86VL8); test: SLC transporter substrate assay, MDCKII-MATE2K-Fin vs control MDCKII-CAT-Fin cells
# Protocol: The described cells were plated onto standard 24-well tissue culture plates at densities of 5 × 10^5 cells/well. […] Before starting the experiment, the cells were prepared by removing the medium and washing the cells twice with 300 µL of assay buffer. […] The cells were lysed by adding 300 µL of 0.1N NaOH, they were incubated for 10 min at 37 °C and 100 µL samples were taken from all the wells.
# The amount of protein in each well was quantified using the BCA kit for protein determination (Sigma-Aldrich, St Louis, MO, USA). Positive controls were performed using a separate 96-well plate format according to Table S8 in SI4.
# (§1) SI4. Results of transporter substrate assays (SLC)
# Table S8: Parameters of positive controls, control cell lines and plating for SLC transporters assays.
# KH: Krebs-Henseleit buffer, HBSS: Hank's balanced salt solution, MES: 2 -(N-morpholino) ethanesulfonic acid, cGMP:
# Guanosine cyclic phosphate, E3S: Estrone -3-sulfate, Gly-Sar: Glycylsarcosine, MPP+: 1-methyl-4-phenylpyridinium.
# Calculation of fold accumulation values for SLC transporter substrate assays The fold accumulation value was defined as the ratio of uptake of the test substance (TS) or probe substrate into transfected and control cells. If the fold accumulation is > 2 and can be inhibited by a known inhibitor of the transporter, the test substance can be considered as a substrate of the respective transporter.
# (§2) Fold accumulation = UPTTRP
# • UPTTRP: accumulated amount of test substance (TS) or probe substrate in transfected cells normalized by protein content […]
# • UPTCTRL: accumulated amount of test substance (TS) or probe substrate in control cells normalized by protein content […]
# 4.2 Multidrug and toxin extrusion protein MATE2-K
# (MDCKII-MATE2K-Fin) and control cells (MDCKII-CAT-Fin) applying 2- and 20-minute incubation periods, measured in SLC transporter substrate assay. […] Concentrations are nominal. […]
# and control cells (MDCKII-CAT-Fin) applying 2- and 20-minute incubation periods, measured in SLC transporter […]
# Compound Nominal In MATE2-K Fold
# human OCT3 = biological target: T1, human OCT3 (Homo sapiens, UniProt O75751); test: SLC transporter substrate assay, HEK293-OCT3-LV vs control HEK293-Mock-LV cells; assay type: in vitro ADME
# T1 construct: host or cells: HEK293-OCT3-LV
# T1 sequence (O75751 1-556): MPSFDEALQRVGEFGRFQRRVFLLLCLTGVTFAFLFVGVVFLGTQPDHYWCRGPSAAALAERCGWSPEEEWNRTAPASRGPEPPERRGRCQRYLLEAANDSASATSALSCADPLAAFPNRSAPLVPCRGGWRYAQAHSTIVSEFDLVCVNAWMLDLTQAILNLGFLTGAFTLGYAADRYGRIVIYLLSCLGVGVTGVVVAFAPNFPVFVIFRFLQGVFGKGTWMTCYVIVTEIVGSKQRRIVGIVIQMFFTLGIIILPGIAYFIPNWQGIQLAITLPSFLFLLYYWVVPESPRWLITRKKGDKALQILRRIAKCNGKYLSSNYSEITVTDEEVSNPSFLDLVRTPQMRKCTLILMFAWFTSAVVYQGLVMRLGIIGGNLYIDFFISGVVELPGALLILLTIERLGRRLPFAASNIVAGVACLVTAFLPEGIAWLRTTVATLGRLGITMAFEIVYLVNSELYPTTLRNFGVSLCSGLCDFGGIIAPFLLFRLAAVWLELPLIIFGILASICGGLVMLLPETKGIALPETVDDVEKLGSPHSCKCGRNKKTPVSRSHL
# Protocol: as §1
# Human Incubation Positive control substrate/ Control Special Incubation Assay […]
# (Cell line) at 37°C [min] [h] […]
# into transfected and control cells.
# as §2
# PSMA-617 in SLC transporters.
# NA: not analyzed. Test substances were considered as substrates in case of fold accumulation values > 2 combined with inhibition values higher than 50%.
# 4.7 Organic cation transporter OCT3
# (HEK293-OCT3-LV) and control cells (HEK293-Mock-LV) applying 2- and 20-minute incubation periods, measured in SLC transporter substrate assay. […] Concentrations are nominal.
# Table S16: ([α,β-3H]Nal)Lu-PSMA-617-accumulation in OCT3 transporter-expressing (HEK293-OCT3-LV) and control […]
# Conditions Accumulation (pmol/mg protein)
# Compound Nominal In OCT3 Fold concentration Minutes transporter In control Active accumulation
# [µM] expressing cells transport
# Positive control (accumulation in cpm)
# MPP +: 1-methyl -4-phenylpyridinium.
# Sequence of human MATE2-K (Q86VL8 1-566 isoform Q86VL8-3): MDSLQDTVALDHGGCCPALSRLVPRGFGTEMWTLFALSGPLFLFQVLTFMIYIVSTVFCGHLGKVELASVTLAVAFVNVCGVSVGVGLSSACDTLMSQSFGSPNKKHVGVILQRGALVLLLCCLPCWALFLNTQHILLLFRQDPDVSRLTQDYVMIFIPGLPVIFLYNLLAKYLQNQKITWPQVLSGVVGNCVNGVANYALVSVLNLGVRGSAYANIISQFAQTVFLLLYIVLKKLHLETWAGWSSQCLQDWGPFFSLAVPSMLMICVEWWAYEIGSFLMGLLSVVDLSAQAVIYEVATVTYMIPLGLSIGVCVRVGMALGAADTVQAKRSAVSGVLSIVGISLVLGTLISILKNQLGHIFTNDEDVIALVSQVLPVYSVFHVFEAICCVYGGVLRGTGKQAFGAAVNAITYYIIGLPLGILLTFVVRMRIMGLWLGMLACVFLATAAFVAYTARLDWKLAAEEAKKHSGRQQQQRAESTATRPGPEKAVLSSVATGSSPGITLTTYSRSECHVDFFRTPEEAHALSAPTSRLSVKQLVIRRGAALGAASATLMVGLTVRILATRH
smiles,measurement,setting,value
"[3H]C(c1ccc2ccccc2c1)C([3H])(NC(=O)C1CCC(CNC(=O)CN2CCN(CC(=O)[O-])CCN(CC(=O)[O-])CCN(CC(=O)[O-])CC2)CC1)C(=O)NCCCCC(NC(=O)NC(CCC(=O)O)C(=O)O)C(=O)O.[Lu+3] (stereo not drawn) [([α,β-^3H]Nal)Lu-PSMA-617]",Accumulation in MATE2-K transporter expressing cells,"human MATE2-K; 0.03 µM nominal, 2 min",0.06 ± 0.01 pmol/mg protein
same,Accumulation in control cells,"human MATE2-K; 0.03 µM nominal, 2 min",0.11 ± 0.01 pmol/mg protein
same,"Accumulation, active transport","human MATE2-K; 0.03 µM nominal, 2 min",-0.05 ± 0.02 pmol/mg protein
same,Fold accumulation,"human MATE2-K; 0.03 µM nominal, 2 min",0.54
same,Accumulation in MATE2-K transporter expressing cells,"human MATE2-K; 0.03 µM nominal, 20 min",0.10 ± 0.01 pmol/mg protein
same,Accumulation in control cells,"human MATE2-K; 0.03 µM nominal, 20 min",0.16 ± 0.01 pmol/mg protein
same,"Accumulation, active transport","human MATE2-K; 0.03 µM nominal, 20 min",-0.07 ± 0.01 pmol/mg protein
same,Fold accumulation,"human MATE2-K; 0.03 µM nominal, 20 min",0.59
same,Accumulation in MATE2-K transporter expressing cells,"human MATE2-K; 0.30 µM nominal, 2 min",0.64 ± 0.14 pmol/mg protein
same,Accumulation in control cells,"human MATE2-K; 0.30 µM nominal, 2 min",0.59 ± 0.04 pmol/mg protein
same,"Accumulation, active transport","human MATE2-K; 0.30 µM nominal, 2 min",0.05 ± 0.15 pmol/mg protein
same,Fold accumulation,"human MATE2-K; 0.30 µM nominal, 2 min",1.08
same,Accumulation in MATE2-K transporter expressing cells,"human MATE2-K; 0.30 µM nominal, 20 min",0.91 ± 0.13 pmol/mg protein
same,Accumulation in control cells,"human MATE2-K; 0.30 µM nominal, 20 min",0.97 ± 0.07 pmol/mg protein
same,"Accumulation, active transport","human MATE2-K; 0.30 µM nominal, 20 min",-0.06 ± 0.15 pmol/mg protein
same,Fold accumulation,"human MATE2-K; 0.30 µM nominal, 20 min",0.94
same,Substrate assessment (MATE2-K),"human MATE2-K; 0.03, 0.30 µM, 2, 20 min",no in vitro substrate
same,"Max. transporter-specific fold accumulation, without inhibitor","human MATE2-K; 2 min, 0.3 µM",1.08
same,Accumulation in OCT3 transporter expressing cells,"human OCT3; 0.03 µM nominal, 2 min",0.026 ± 0.005 pmol/mg protein
same,Accumulation in control cells,"human OCT3; 0.03 µM nominal, 2 min",0.022 ± 0.002 pmol/mg protein
same,"Accumulation, active transport","human OCT3; 0.03 µM nominal, 2 min",0.003 ± 0.005 pmol/mg protein
same,Fold accumulation,"human OCT3; 0.03 µM nominal, 2 min",1.15
same,Accumulation in OCT3 transporter expressing cells,"human OCT3; 0.03 µM nominal, 20 min",0.041 ± 0.004 pmol/mg protein
same,Accumulation in control cells,"human OCT3; 0.03 µM nominal, 20 min",0.032 ± 0.005 pmol/mg protein
same,"Accumulation, active transport","human OCT3; 0.03 µM nominal, 20 min",0.009 ± 0.006 pmol/mg protein
same,Fold accumulation,"human OCT3; 0.03 µM nominal, 20 min",1.29
same,Accumulation in OCT3 transporter expressing cells,"human OCT3; 0.30 µM nominal, 2 min",0.351 ± 0.047 pmol/mg protein
same,Accumulation in control cells,"human OCT3; 0.30 µM nominal, 2 min",0.277 ± 0.047 pmol/mg protein
same,"Accumulation, active transport","human OCT3; 0.30 µM nominal, 2 min",0.074 ± 0.067 pmol/mg protein
same,Fold accumulation,"human OCT3; 0.30 µM nominal, 2 min",1.27
same,Accumulation in OCT3 transporter expressing cells,"human OCT3; 0.30 µM nominal, 20 min",0.446 ± 0.098 pmol/mg protein
same,Accumulation in control cells,"human OCT3; 0.30 µM nominal, 20 min",0.332 ± 0.047 pmol/mg protein
same,"Accumulation, active transport","human OCT3; 0.30 µM nominal, 20 min",0.113 ± 0.109 pmol/mg protein
same,Fold accumulation,"human OCT3; 0.30 µM nominal, 20 min",1.34
same,Substrate assessment (OCT3),"human OCT3; 0.03, 0.30 µM, 2, 20 min",no in vitro substrate
same,"Max. transporter-specific fold accumulation, without inhibitor","human OCT3; 20 min, 0.3 µM",1.34
